Data taken from patent publication US20230373930A1, “AMINOIMIDAZOLE FPR2 AGONISTS” (BRISTOL-MYERS SQUIBB COMPANY, priority 2020, published 2023).

How the values were obtained:
human FPR1 = target: T1, human FPR1 (Homo sapiens, UniProt P21462); assay: FPR1 cyclic adenosine monophosphate (cAMP) assay; assay type: cell-based; conditions: CHO cells overexpressing human FPR1; forskolin 10 μM; inhibition of cAMP production; HTRF; read-out: hFPR1 cAMP2 EC50
T1 sequence (P21462 1-350): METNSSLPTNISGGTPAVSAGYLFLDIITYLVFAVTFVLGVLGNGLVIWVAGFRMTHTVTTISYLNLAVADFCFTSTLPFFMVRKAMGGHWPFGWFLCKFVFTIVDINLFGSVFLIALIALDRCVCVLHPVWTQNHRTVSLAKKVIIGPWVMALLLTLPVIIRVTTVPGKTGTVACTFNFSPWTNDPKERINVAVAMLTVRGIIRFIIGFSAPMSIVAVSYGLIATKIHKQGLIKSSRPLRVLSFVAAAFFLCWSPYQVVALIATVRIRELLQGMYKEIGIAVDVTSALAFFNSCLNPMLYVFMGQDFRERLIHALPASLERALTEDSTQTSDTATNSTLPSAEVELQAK
In short: (§1)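 CHO cells overexpressing human FPR1 (4,000/well, 10 μM forskolin) or FPR2 (2,000/well, 5 μM forskolin) were incubated with 200 μM IBMX and compound (0.020 nM–100 μM, 1% DMSO) for 30 min at room temperature. Intracellular cAMP was measured by HTRF against a cAMP standard curve, and inhibition of cAMP production was fitted to a 4-parameter logistic.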

human FPR2 = target: T2, human FPR2 (Homo sapiens, UniProt P25090); assay: FPR2 cyclic adenosine monophosphate (cAMP) assay; assay type: cell-based; conditions: CHO cells overexpressing human FPR2; forskolin 5 μM; inhibition of cAMP production; HTRF; read-out: hFPR2 cAMP2 EC50
T2 sequence (P25090 1-351): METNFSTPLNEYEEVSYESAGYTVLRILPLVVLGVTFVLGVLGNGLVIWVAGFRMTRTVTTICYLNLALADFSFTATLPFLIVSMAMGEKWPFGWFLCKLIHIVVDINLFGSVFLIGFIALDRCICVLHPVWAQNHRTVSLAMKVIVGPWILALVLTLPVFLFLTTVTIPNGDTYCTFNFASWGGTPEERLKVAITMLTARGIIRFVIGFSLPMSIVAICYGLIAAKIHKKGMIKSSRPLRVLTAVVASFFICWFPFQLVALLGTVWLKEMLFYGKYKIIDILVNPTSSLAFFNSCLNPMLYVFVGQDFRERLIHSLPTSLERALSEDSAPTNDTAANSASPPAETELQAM
In short: as §1

Row | EC50 (human FPR1) [nM] | EC50 (human FPR2) [nM] | SMILES
1 | 1300 | 46 | COc1cc(F)c(-n2cc(Cc3ccccc3)nc2NC(=O)c2ccc(OC(F)F)cc2)c(F)c1 [Example 71, N-[4-benzyl-1-(2,6-difluoro-4-methoxyphenyl)-1H-imidazol-2-yl]-4-(difluoromethoxy)benzamide]
2 | 470 | 22 | CCOC(=O)Cc1cn(-c2c(F)cc(OC)cc2F)c(NC(=O)c2ccc(OC(F)F)cc2)n1 [Example 72, ethyl 2-[1-(2,6-difluoro-4-methoxyphenyl)-2-[4-(difluoromethoxy)benzamido]-1H-imidazol-4-yl]acetate]
3 | 300 | 23 | COc1cc(F)c(-n2cc(Cc3nnc(C)o3)nc2NC(=O)c2ccc(OC(F)F)cc2)c(F)c1 [Example 73, N-(1-(2,6-Difluoro-4-methoxyphenyl)-4-((5-methyl-1,3,4-oxadiazol-2-yl)methyl)-1H-imidazol-2-yl)-4-(difluoromethoxy)benzamide]
4 | 250 | 7 | COc1cc(F)c(-n2cc(C3CC(O)C3)nc2NC(=O)c2ccc(OC(F)F)cc2)c(F)c1 (centres unmarked) [Example 74, N-(1-(2,6-Difluoro-4-methoxyphenyl)-4-(3-hydroxycyclobutyl)-1H-imidazol-2-yl)-4-(difluoromethoxy)benzamide]
5 | > 10000 | 23 | COc1cc(F)c(-n2cc(C3CC4(CNC4)C3)nc2NC(=O)c2ccc(OC(F)F)cc2)c(F)c1 [Example 75, N-(1-(2,6-Difluoro-4-methoxyphenyl)-4-(2-azaspiro[3.3]heptan-6-yl)-1H-imidazol-2-yl)-4-(difluoromethoxy)benzamide]
6 | 240 | 10 | COc1cc(F)c(-n2cc(C3CCC(O)CC3)nc2NC(=O)c2ccc(OC(F)F)cc2)c(F)c1 (centres unmarked) [Example 76, N-(1-(2,6-Difluoro-4-methoxyphenyl)-4-(4-hydroxycyclohexyl)-1H-imidazol-2-yl)-4-(difluoromethoxy)benzamide]
7 | 120 | 13 | COc1cc(F)c(-n2cc(Cc3nc4ncc(F)cc4[nH]3)nc2NC(=O)c2ccc(OC(F)F)cc2)c(F)c1 [Example 77, N-(1-(2,6-Difluoro-4-methoxyphenyl)-4-((6-fluoro-1H-imidazo[4,5-b]pyridin-2-yl)methyl)-1H-imidazol-2-yl)-4-(difluoromethoxy)benzamide]
8 | 870 | 56 | COc1cc(F)c(-n2cc(Cc3ccccn3)nc2NC(=O)c2ccc(OC(F)F)cc2)c(F)c1 [Example 78, N-[1-(2,6-difluoro-4-methoxyphenyl)-4-[(pyridin-2-yl)methyl]-1H-imidazol-2-yl]-4-(difluoromethoxy)benzamide]
9 | 4200 | 81 | COc1cc(F)c(-n2cc(C3CNC3)nc2NC(=O)c2ccc(OC(F)F)cc2)c(F)c1 [Example 79, N-[4-(azetidin-3-yl)-1-(2,6-difluoro-4-methoxyphenyl)-1H-imidazol-2-yl]-4-(difluoromethoxy)benzamide]
10 | 500 | 59 | COc1cc(F)c(-n2cc(-c3ccn[nH]3)nc2NC(=O)c2ccc(OC(F)F)cc2)c(F)c1 [Example 80, N-[1-(2,6-difluoro-4-methoxyphenyl)-4-(1H-pyrazol-5-yl)-1H-imidazol-2-yl]-4-(difluoromethoxy)benzamide]
11 | 5400 | 4 | COc1cc(F)c(-n2cc(C3CC(N)C3)nc2NC(=O)c2ccc(OC(F)F)cc2)c(F)c1 (centres unmarked) [Example 81, N-[4-(3-aminocyclobutyl)-1-(2,6-difluoro-4-methoxyphenyl)-1H-imidazol-2-yl]-4-(difluoromethoxy)benzamide]
12 | 85 | 10 | COc1cc(F)c(-n2cc(C3CC(NCC(F)(F)F)C3)nc2NC(=O)c2ccc(OC(F)F)cc2)c(F)c1 (centres unmarked) [Example 82, N-(1-(2,6-Difluoro-4-methoxyphenyl)-4-(3-((2,2,2-trifluoroethyl)amino)cyclobutyl)-1H-imidazol-2-yl)-4-(difluoromethoxy)benzamide]
13 | 400 | 5 | COc1cc(F)c(-n2cc(C3CC(NS(C)(=O)=O)C3)nc2NC(=O)c2ccc(OC(F)F)cc2)c(F)c1 (centres unmarked) [Example 83, N-[1-(2,6-difluoro-4-methoxyphenyl)-4-(3-methanesulfonamidocyclobutyl)-1H-imidazol-2-yl]-4-(difluoromethoxy)benzamide]
